Biological target: T1, full-length human PKCι (Homo sapiens, UniProt P41743)
T1 construct: Recombinant, full-length human PKCι expressed in Sf21 insect cells is also commercially available; purchased; host or cells: Sf21 insect cells
T1 sequence (P41743 1-596): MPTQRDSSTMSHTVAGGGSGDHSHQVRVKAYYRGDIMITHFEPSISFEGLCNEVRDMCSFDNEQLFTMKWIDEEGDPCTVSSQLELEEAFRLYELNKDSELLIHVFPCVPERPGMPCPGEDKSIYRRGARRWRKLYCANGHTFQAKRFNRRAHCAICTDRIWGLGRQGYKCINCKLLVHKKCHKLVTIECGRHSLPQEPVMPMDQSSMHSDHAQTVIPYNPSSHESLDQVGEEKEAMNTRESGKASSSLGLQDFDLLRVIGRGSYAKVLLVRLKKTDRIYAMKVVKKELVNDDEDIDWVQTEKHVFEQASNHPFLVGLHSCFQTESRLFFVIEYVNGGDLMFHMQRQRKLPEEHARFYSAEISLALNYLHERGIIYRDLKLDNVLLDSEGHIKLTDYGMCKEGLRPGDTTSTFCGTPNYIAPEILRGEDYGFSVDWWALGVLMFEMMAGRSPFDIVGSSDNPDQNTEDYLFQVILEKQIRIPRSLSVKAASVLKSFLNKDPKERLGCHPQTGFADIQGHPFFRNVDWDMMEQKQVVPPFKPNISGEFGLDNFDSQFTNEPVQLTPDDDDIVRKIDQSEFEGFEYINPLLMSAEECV
Assay: PKCι IC50 IMAP fluorescence polarisation assay, full-length enzyme
Type: biochemical
Conditions: full length PKCi at 15 μM ATP; read-out: IC50 in IMAP assay against full length PKCi

`COc1ccc(F)cc1-c1c(C)sc2c(NC[C@@H](N)Cc3ccccc3)nc(-c3ccncc3)nc12` [compound 467, (S)-N*1*-[7-(5-Fluoro-2-methoxy-phenyl)-6-methyl-2-pyridin-4-yl-thieno[3,2-d]pyrimidin-4-yl]-3-phenyl-propane-1,2-diamine] and `COc1ccc(C(F)(F)F)cc1-c1c(C)sc2c(NC[C@@H](N)Cc3ccccc3)nc(-c3ccncc3)nc12` [compound 464, (S)-N*1*-[7-(2-Methoxy-5-trifluoromethyl-phenyl)-6-methyl-2-pyridin-4-yl-thieno[3,2-d]pyrimidin-4-yl]-3-phenyl-propane-1,2-diamine] fall in the same range of IC50: 10 to 40 µM for the first, 10 to 40 µM for the second.

`CN(C)CCNc1nc(-c2ccncc2)nc2c(Br)csc12` [compound 339, N′-(7-Bromo-2-pyridin-4-yl-thieno[3,2-d]pyrimidin-4-yl)-N,N-dimethyl-ethane-1,2-diamine] and `Brc1csc2c(NC[C@@H]3CCCN3)nc(-c3ccncc3)nc12` [compound 341, (7-Bromo-2-pyridin-4-yl-thieno[3,2-d]pyrimidin-4-yl)-(S)-1-pyrrolidin-2-ylmethyl-amine] fall in the same range of IC50: 10 to 40 µM for the first, 10 to 40 µM for the second.

`CC(C)(C)c1ccc(-c2cc3nc(-c4ccncc4)nc(N4CCNCC4)c3s2)cc1` [compound 357, 6-(4-tert-Butyl-phenyl)-4-piperazin-1-yl-2-pyridin-4-yl-thieno[3,2-d]pyrimidine] and `CC(C)(C)c1sc2c(NCCN)nc(-c3ccncc3)nc2c1Br` [compound 333, N*1*-(7-Bromo-6-tert-butyl-2-pyridin-4-yl-thieno[3,2-d]pyrimidin-4-yl)-ethane-1,2-diamine] fall in the same range of IC50: 10 to 40 µM for the first, 10 to 40 µM for the second.

First: Fc1cnccc1-c1nc(N[C@@H]2CCNC2)c2sccc2n1 [compound 354, [2-(3-Fluoro-pyridin-4-yl)-thieno[3,2-d]pyrimidin-4-yl]-(R)-pyrrolidin-3-yl-amine]
Second: Fc1cnc(Nc2cnccn2)cc1-c1nc(N[C@@H]2CCNC2)c2sccc2n1 [compound 580, {2-[5-Fluoro-2-(pyrazin-2-ylamino)-pyridin-4-yl]-thieno[3,2-d]pyrimidin-4-yl}-(R)-pyrrolidin-3-yl-amine]
The IC50 of the first is higher: 10 to 40 µM for the first, 0.1 to 1 µM for the second.

First: Cc1sc2c(NCCN)nc(-c3ccncc3)nc2c1C [compound 309, N*1*-(6,7-Dimethyl-2-pyridin-4-yl-thieno[3,2-d]pyrimidin-4-yl)-ethane-1,2-diamine]
Second: COc1ncccc1-c1c(C)sc2c(NC[C@@H](N)Cc3ccccc3)nc(-c3ccncc3)nc12 [compound 465, (S)-N*1*-[7-(2-Methoxy-pyridin-3-yl)-6-methyl-2-pyridin-4-yl-thieno[3,2-d]pyrimidin-4-yl]-3-phenyl-propane-1,2-diamine]
The IC50 of the first is lower: 1 to 10 µM for the first, 10 to 40 µM for the second.

`Nc1csc2c(NC[C@@H](N)Cc3ccccc3)nc(-c3ccncc3)nc12` [compound 566, N*4*-((S)-2-Amino-3-phenyl-propyl)-2-pyridin-4-yl-thieno[3,2-d]pyrimidine-4,7-diamine] and `CC(C)C#Cc1csc2c(NC[C@@H](N)Cc3ccccc3)nc(-c3ccncc3)nc12` [compound 518, (S)-N*1*-[7-(3-Methyl-but-1-ynyl)-2-pyridin-4-yl-thieno[3,2-d]pyrimidin-4-yl]-3-phenyl-propane-1,2-diamine] fall in the same range of IC50: 0.1 to 1 µM for the first, 0.1 to 1 µM for the second.

`CC(C)Cn1cc(-c2csc3c(NC[C@@H](N)Cc4ccccc4)nc(-c4ccncc4)nc23)cn1` [compound 394, (S)-N*1*-[7-(1-Isobutyl-1H-pyrazol-4-yl)-2-pyridin-4-yl-thieno[3,2-d]pyrimidin-4-yl]-3-phenyl-propane-1,2-diamine] and `CCN(CC)C(=O)c1csc2c(NC[C@@H](N)Cc3ccccc3)nc(-c3ccncc3)nc12` [compound 552, 4-((S)-2-Amino-3-phenyl-propylamino)-2-pyridin-4-yl-thieno[3,2-d]pyrimidine-7-carboxylic acid diethylamide] fall in the same range of IC50: 1 to 10 µM for the first, 1 to 10 µM for the second.

Compared with `N#Cc1ccc(Nc2cc(-c3nc(N[C@@H]4CCNC4)c4sccc4n3)ccn2)nc1` [compound 604, 6-{4-[4-((R)-Pyrrolidin-3-ylamino)-thieno[3,2-d]pyrimidin-2-yl]-pyridin-2-ylamino}-nicotinonitrile], `c1ccc(Nc2cc(-c3nc(N[C@@H]4CCNC4)c4sccc4n3)ccn2)cc1` [compound 573, [2-(2-Phenylamino-pyridin-4-yl)-thieno[3,2-d]pyrimidin-4-yl]-(R)-pyrrolidin-3-yl-amine] is higher in IC50: 0.1 to 1 µM for the first, 1 to 10 µM for the second. The first is the more potent here.

Compared with `F[C@H]1CN(Cc2ccccc2)C[C@@H]1Nc1nc(-c2ccncc2)nc2ccsc12` [compound 315, ((3S,4S)-1-Benzyl-4-fluoro-pyrrolidin-3-yl)-(2-pyridin-4-yl-thieno[3,2-d]pyrimidin-4-yl)-amine], `N[C@H](CNc1nc(-c2ccncc2)nc2c(CCC3CC3)csc12)Cc1ccccc1` [compound 563, (S)—N*1*-[7-(2-Cyclopropyl-ethyl)-2-pyridin-4-yl-thieno[3,2-d]pyrimidin-4-yl]-3-phenyl-propane-1,2-diamine] is lower in IC50: 10 to 40 µM for the first, 1 to 10 µM for the second. The second is the more potent here.

Compared with `CC[C@@H](Nc1cc(-c2nc(N[C@@H]3CCNC3)c3sccc3n2)ccn1)c1ccccc1` [compound 590, {2-[2-((R)-1-Phenyl-propylamino)-pyridin-4-yl]-thieno[3,2-d]pyrimidin-4-yl}-(R)-pyrrolidin-3-yl-amine], `O=C(Nc1cc(-c2nc(N[C@@H]3CCNC3)c3sccc3n2)ccn1)c1ccc(N2CCOCC2)cc1` [compound 621, 4-Morpholin-4-yl-N-{4-[4-((R)-pyrrolidin-3-ylamino)-thieno[3,2-d]pyrimidin-2-yl]-pyridin-2-yl}-benzamide] is lower in IC50: 1 to 10 µM for the first, 0.1 to 1 µM for the second.

First: N[C@H](CNc1nc(-c2ccncc2)nc2c(C#Cc3cscn3)csc12)Cc1ccccc1 [compound 548, (S)-3-Phenyl-N*1*-(2-pyridin-4-yl-7-thiazol-4-ylethynyl-thieno[3,2-d]pyrimidin-4-yl)-propane-1,2-diamine]
Second: N[C@H](CNc1nc(-c2ccncc2F)nc2c(-c3cc[nH]n3)csc12)Cc1ccccc1 [compound 416, (S)-N*1*-[2-(3-Fluoro-pyridin-4-yl)-7-(1H-pyrazol-3-yl)-thieno[3,2-d]pyrimidin-4-yl]-3-phenyl-propane-1,2-diamine]
The IC50 of the first is higher: 0.1 to 1 µM for the first, < 0.1 µM for the second.

Same assay, conditions: full length PKCi at 15 μM ATP; read-out: IC50 in IMAP assay against full length PKCi (Activity)

`NCCNc1nc(-c2ccncc2)nc2sc3c(c12)CCN(C(=O)c1ccccc1)C3` [compound 27, [4-(2-Amino-ethylamino)-2-pyridin-4-yl-5,8-dihydro-6H-pyrido[4′,3′:4,5]thieno[2,3-d]pyrimidin-7-yl]-phenyl-methanone] and `CC(C)C(=O)N1CCc2c(sc3nc(-c4ccncc4)nc(NCCN)c23)C1` [compound 107, 1-[4-(2-Amino-ethylamino)-2-pyridin-4-yl-5,8-dihydro-6H-pyrido[4′,3′:4,5]thieno[2,3-d]pyrimidin-7-yl]-2-methyl-propan-1-one] fall in the same range of IC50: 10 to 40 µM for the first, 10 to 40 µM for the second.

`N[C@H](CNc1nc(-c2ccncc2)nc2sc3c(c12)CCCC3)Cc1ccccn1` [compound 58, (S)-3-Pyridin-2-yl-N*1*-(2-pyridin-4-yl-5,6,7,8-tetrahydro-benzo[4,5]thieno[2,3-d]pyrimidin-4-yl)-propane-1,2-diamine] and `N[C@@H](CNc1nc(-c2ccncc2)nc2sc3c(c12)CCCCC3)Cc1ccccc1` [compound 70, (R)-3-Phenyl-N*1*-(2-pyridin-4-yl-6,7,8,9-tetrahydro-5H-10-thia-1,3-diaza-benzo[a]azulen-4-yl)-propane-1,2-diamine] fall in the same range of IC50: 1 to 10 µM for the first, 1 to 10 µM for the second.

`c1ccc(C[C@H]2CN(c3nc(-c4cn[nH]c4)nc4sc5c(c34)CCCC5)CCN2)cc1` [compound 196, 4-((S)-3-Benzyl-piperazin-1-yl)-2-(1H-pyrazol-4-yl)-5,6,7,8-tetrahydro-benzo[4,5]thieno[2,3-d]pyrimidine] and `COc1ccccc1C[C@H](N)CNc1nc(-c2ccncc2)nc2sc3c(c12)CCCC3` [compound 49, (S)-3-(2-methoxy-phenyl)-N*1*-(2-pyridin-4-yl-5,6,7,8-tetrahydro-benzo[4,5]thieno[2,3-d]pyrimidin-4-yl)-propane-1,2-diamine] fall in the same range of IC50: 1 to 10 µM for the first, 1 to 10 µM for the second.

`CCN1CCc2c(sc3nc(-c4ccncc4)nc(NCCN)c23)C1` [compound 112, N*1*-(7-ethyl-2-pyridin-4-yl-5,6,7,8-tetrahydro-pyrido[4′,3′:4,5]thieno[2,3-d]pyrimidin-4-yl)-ethane-1,2-diamine] and `CC(C)(C)C(=O)N1CCc2c(sc3nc(-c4ccncc4)nc(NCCN)c23)C1` [compound 104, 1-[4-(2-amino-ethylamino)-2-pyridin-4-yl-5,8-dihydro-6H-pyrido[4′,3′:4,5]thieno[2,3-d]pyrimidin-7-yl]-2,2-dimethyl-propan-1-one] fall in the same range of IC50: 10 to 40 µM for the first, 10 to 40 µM for the second.

`N[C@@H](CNc1nc(-c2ccncc2)nc2sc3c(c12)CCCC3)Cc1csc2ccccc12` [compound 61, (R)-3-Benzo[b]thiophen-3-yl-N*1*-(2-pyridin-4-yl-5,6,7,8-tetrahydro-benzo[4,5]thieno[2,3-d]pyrimidin-4-yl)-propane-1,2-diamine] showed an IC50 of 1 to 10 µM.

— US10183950B2, “Thienopyrimidine inhibitors of atypical protein kinase C” (Cancer Research Technology Limited, priority 2011, dated 2019)
